Blank lines part the entries; values can stand above or below the molecule they belong to.
Key:
[1] = tested on: collagen in sections of rat aorta and tail tendon; assay: Histochemical analysis of rat aorta and tail tendon sections; conditions: frozen sections of rat aorta and tail tendon, biotin-peptide 200 µg/mL, HRP-coupled streptavidin
Procedure: Sections were counter-stained with hematoxylin-eosin (Merck). Collagen was stained using picrosirius red. Sections ([…]) of rat tail tendon were processed as above.

[2] = molecular target: fibrillar type I collagen (Homo sapiens, UniProt P02452+P08123); assay: Solid phase assay on collagen-coated microtitration plates; type: binding; conditions: n = 3
fibrillar type I collagen, sequence (P02452 162-1218 limits assumed): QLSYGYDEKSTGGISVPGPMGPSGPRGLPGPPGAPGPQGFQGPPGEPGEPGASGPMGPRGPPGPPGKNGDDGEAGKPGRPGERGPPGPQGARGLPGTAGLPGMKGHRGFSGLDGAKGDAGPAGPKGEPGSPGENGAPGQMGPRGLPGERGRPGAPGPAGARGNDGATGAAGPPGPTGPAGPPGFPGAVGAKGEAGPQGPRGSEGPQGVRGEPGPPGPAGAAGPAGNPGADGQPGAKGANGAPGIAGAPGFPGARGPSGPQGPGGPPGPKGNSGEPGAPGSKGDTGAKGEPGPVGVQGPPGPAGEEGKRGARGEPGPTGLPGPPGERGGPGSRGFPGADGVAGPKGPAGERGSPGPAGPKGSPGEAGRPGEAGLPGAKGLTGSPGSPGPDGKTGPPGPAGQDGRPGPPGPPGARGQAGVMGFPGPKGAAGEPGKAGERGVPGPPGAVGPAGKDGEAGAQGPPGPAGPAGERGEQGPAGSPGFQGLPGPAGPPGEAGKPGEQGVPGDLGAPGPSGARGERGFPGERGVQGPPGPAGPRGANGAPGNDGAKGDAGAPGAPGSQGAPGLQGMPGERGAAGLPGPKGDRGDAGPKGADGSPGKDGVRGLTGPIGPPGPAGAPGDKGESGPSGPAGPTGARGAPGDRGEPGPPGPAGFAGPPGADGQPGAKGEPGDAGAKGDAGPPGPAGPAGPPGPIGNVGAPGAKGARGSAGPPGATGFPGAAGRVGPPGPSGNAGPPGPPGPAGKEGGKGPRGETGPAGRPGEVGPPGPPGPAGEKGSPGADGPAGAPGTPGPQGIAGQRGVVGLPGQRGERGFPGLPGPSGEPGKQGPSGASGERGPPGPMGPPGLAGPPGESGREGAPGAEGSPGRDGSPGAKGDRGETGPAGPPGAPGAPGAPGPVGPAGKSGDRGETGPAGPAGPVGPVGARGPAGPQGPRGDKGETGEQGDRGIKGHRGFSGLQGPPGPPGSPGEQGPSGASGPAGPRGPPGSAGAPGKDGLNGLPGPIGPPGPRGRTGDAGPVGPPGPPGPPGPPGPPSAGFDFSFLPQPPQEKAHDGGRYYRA
fibrillar type I collagen, sequence (P08123 80-1119 limits assumed): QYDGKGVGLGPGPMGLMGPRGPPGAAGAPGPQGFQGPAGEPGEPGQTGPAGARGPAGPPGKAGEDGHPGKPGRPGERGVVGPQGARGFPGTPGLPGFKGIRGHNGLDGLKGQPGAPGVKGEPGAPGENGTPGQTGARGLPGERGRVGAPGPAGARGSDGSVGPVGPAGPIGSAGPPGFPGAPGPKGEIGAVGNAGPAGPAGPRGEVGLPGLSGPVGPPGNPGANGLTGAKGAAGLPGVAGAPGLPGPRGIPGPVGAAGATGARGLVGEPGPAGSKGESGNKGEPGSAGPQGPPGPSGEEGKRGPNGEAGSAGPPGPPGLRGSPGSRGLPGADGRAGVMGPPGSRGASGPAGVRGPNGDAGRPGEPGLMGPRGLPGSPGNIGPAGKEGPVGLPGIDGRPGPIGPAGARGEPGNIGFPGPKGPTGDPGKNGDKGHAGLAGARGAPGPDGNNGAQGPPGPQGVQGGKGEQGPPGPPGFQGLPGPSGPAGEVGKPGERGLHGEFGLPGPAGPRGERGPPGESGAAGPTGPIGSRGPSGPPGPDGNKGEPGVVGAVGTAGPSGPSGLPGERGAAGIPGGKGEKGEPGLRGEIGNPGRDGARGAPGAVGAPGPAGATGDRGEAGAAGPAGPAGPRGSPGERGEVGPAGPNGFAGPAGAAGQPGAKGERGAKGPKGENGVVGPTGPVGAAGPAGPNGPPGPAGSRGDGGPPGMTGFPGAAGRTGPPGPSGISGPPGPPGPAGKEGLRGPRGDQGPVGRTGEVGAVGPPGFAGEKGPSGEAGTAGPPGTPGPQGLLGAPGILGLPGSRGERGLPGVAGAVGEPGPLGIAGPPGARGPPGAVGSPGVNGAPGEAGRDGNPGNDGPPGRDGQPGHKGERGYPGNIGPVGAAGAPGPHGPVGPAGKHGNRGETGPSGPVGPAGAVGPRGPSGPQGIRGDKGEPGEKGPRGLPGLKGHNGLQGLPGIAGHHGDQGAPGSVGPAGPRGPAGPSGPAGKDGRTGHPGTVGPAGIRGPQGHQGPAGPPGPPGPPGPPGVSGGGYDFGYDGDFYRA
Procedure: Biotin-peptides (50 µg.mL^−1) were incubated on microtitration wells, coated with 1 µg of type-I collagen, convulxin, collagen related peptides, bovine fibrinogen, human fibronectin, rat vitronectin, murine laminin or bovine serum albumin. Bound peptides were detected using HRP-coupled extravidin and the HRP substrate O-phenyl-dianisidine.

9O12.2 IgG = assay: SPR, 9O12.2 IgG injected over immobilized B-collagelin; type: binding
Procedure: 9O12.2 IgG was injected over biotin-peptides coupled to an SA-sensorchip in a Biacore 2000 instrument. […] In some experiments, the peptide was reduced by DTT on the sensor chip before the IgG was injected. Competition experiments were performed by mixing the IgG with recombinant soluble GPVI (25 µg.mL^−1). Collagen binding to the peptide was analyzed by injecting type-I collagen (200 µg.mL^−1) onto the peptide-coated sensorchip. Conversely, biotin-peptides (125, 250, 500 and 1000 µg.mL^−1) were perfused over fibrillar collagen immobilized on a CM5-sensorchip.

murine laminin (murine) = murine laminin (murine) (UniProt P19137); assay: SPR; collagelin and laminin
in vivo = conditions: rat, iv
Procedure: (§1) Two types of control animals were used: healthy rats, and healthy rats which had undergone a simple throracotomy (sham-operated). ^99mTc-biotin-collagelin blood kinetics and biodistribution were investigated by counting blood samples (taken from a jugular catheter) for 6 h after i.v. injection, and organs (extracted after sacrifice) 2 h after injection in a gamma-counter, together with aliquots of the injected preparation (CobraII, Packard, Meriden, USA). Ex vivo myocardial labeling and isotopic imaging were performed 4 weeks after the coronary ligature (or throracotomy), when the lesions had had the time to heal.

[3] = tested on: fibrotic myocardial infarction scar; type: in vivo, rat; conditions: directly labeled tracer
Procedure: Myocardial infarction of the left ventricle was induced in rats as follows. Male Wistar rats (CERJ, France) were housed in a controlled environment and fed with a standard rat chow. Myocardial infarction of the left ventricle was induced by ligature of the left descending coronary artery performed under general anesthesia [1 mL.kg^−1 i.p. ketamine (Imalgene 500, Merial) and 0.5 mL.kg^−1 i.p. xylazine (Rompun, Bayer)] and positive pressure ventilation, as described. This protocol was performed under a permit from the French Veterinary Services Directorate.
as §1
For in vivo experiments, radiotracers (70 MBq) were administered i.v. to anesthetized animals (pentobarbital i.p. 6 mg/100 g BW, Ceva Santé Animale, France) within 2 h of radiolabeling. Scintigraphic images were obtained 0–2 h, 4 h, 6 h, 10 h and 24 h after injecting ^99mTc-streptavidin-biotin peptides and 0–3 h after injecting ^99mTc-biotinylated peptides. Planar and tomographic 1-h acquisitions were performed using a dedicated small animal γIMAGER system (Biospace Lab, Paris, France) equipped with 2 parallel low-energy high-resolution collimators (matrix 128×128, 15% energy window centered on 140 KeV). Tracer uptake in the left cardiac area was assessed visually. Two regions of interest were drawn on the scintigrams, over the heart and over the right lung. The mean activity (cpm) per pixel was determined in each region of interest. Then heart-to-lung activity ratios (HLR) were calculated on both planar and transversal tomographic images.

[4] = tested on: collagen fibers of the infarct scars; assay: Post mortem autoradiography of frozen myocardial sections; type: in vivo, rat; conditions: directly Tc-99m-labeled peptides, frozen myocardial sections
Procedure: After sacrificing the animals, the heart was removed and frozen, then 20-micrometer thick myocardial sections were cut perpendicular to the short axis of the ventricles in a cryostat, and exposed in a radioimager for 16 h. According to calibration studies performed with activity standards of tissue-equivalent homogenates, 50 counts/mm^2 of ^99m Tc-labeled tracers corresponded to ∼210 kBq/mg in autoradiography. The myocardial sections used for autoradiography, and contiguous heart sections (5 µm) fixed in acetone (−20°C), were stained with hematoxylin-eosin, Masson's trichrome and picrosirius red to determine the location and extent of the fibrotic myocardial scarring.

[5] = tested on: rat myocardial scar sections; assay: Ex vivo incubation of myocardial scar sections with radiotracers; conditions: directly Tc-99m-labeled peptides, 120 MBq/ml RPMI, 2 h, p<0.05
Procedure: Rat aorta and rat myocardial scar sections were incubated in the presence of ^99mTc-biotin-collagelin, +/−9012 moAb, or ^99mTc-biotin-control peptide Pc (120 MBq/ml of RPMI) for 2 h. The tissues were then rinsed 5 times for periods of 1 minute, and exposed to the gamma-camera as well as to the instant imager for quantitative autoradiography (Instant Imager, Packard) for 15 h.

Binding to collagen-coated plates ([2]; peptide 50 µg/mL, HRP-coupled extravidin detection): bound | Kd (9O12.2 IgG; read-out: KD of 9O12.2 IgG binding to immobilized B-collagelin, SPR, Biacore 2000, biotin-peptide on SA-sensorchip, IgG 1.25 to 10 µg/mL, KD = koff/kon): 1 µM
Molecule: SGSGCPGRVMHGLHLGDDEGPC (disulfide) [B-collagelin]
Histochemical staining of tissue collagen [1]: Positive and specific brown staining

Kd (murine laminin (murine)): 18.3 µM
Molecule: B-collagelin (collagelin conjugated with biotin) (peptide)

Molecule: CSCC[C@@H]1NC(=O)[C@H](C(C)C)NC(=O)[C@H](CCCNC(=N)N)NC(=O)CNC(=O)[C@@H]2CCCN2C(=O)[C@@H](NC(=O)CNC(=O)[C@H](CO)NC(=O)CNC(=O)[C@H](CO)NC(=O)CCCC[C@@H]2SC[C@@H]3NC(=O)N[C@@H]32)CSSC[C@@H](C(N)=O)NC(=O)[C@@H]2CCCN2C(=O)CNC(=O)[C@H](CCC(=O)O)NC(=O)[C@H](CC(=O)O)NC(=O)[C@H](CC(=O)O)NC(=O)CNC(=O)[C@H](CC(C)C)NC(=O)[C@H](Cc2c[nH]cn2)NC(=O)[C@H](CC(C)C)NC(=O)CNC(=O)[C@H](Cc2c[nH]cn2)NC1=O [^99mTc-collagelin, metal not drawn]
Blood clearance half life (in vivo): 5 ± 0.5 min | tissue uptake at 2 h (in vivo; 1 nmol, total radioactivity): 0.36 %ID/g | Tracer uptake in the cardiac area, sham-operated rats ([3]; n = 6): No tracer uptake | Probe uptake in the cardiac area, rats with MI scars ([3]; planar and SPECT images two hours after injection, all but one of the rats, n = 8): significant uptake | Autoradiographic labeling of the scar [4]: coincided with the collagen fibers of the scars | Ex vivo uptake in scarred tissue of myocardial sections [5]: accumulated in the scarred tissue

Inhibition of B-collagelin binding to collagen-coated plates ([2]; competitor 50 µg/mL mixed with B-collagelin 50 µg/mL): completely inhibited | Effect on binding of 9O12.2 IgG to collagelin (9O12.2 IgG; SPR competition, IgG 5 µg/ml mixed with recombinant soluble GPVI 25 µg/ml): inhibited
B1: GPVI-Fc: soluble recombinant GPVI, extracellular part of GPVI fused to the IgG Fc domain (protein)
chain: QSGPLPKPSLQALPSSLVPLEKPVTLRCQGPPGVDLYRLEKLSSSRYQDQAVLFIPAMKRSLAGRYRCSYQNGSLWSLPSDQLELVATGVFAKPSLSAQPGPAVSSGGDVTLQCQTRYGFDQFALYKEGDPAPYKNPERWYRASFPIITVTAAHSGTYRCYSFSSRDPYLWSAPSDPLELVVTGTSVTPSRLPTEPPSPVAEFSEATAELTVSFTNEVFTTETSRSITASPKESDSPAGPARQYYTK
modifications: left off: Fc (IgG), end not stated, kept
notes: soluble recombinant GPVI, extracellular part of GPVI fused to the IgG Fc domain
